Series [1] deals with HepG2 cells (human liver cancer cells) transplanted tumor. In words: In vivo antitumor testing, first experiment (Animal Model 1). Also on record: species or system BALB/c nude mice. To be noted: 35 days, 5-fluorouracil 15.0 mg/kg per day intra-abdominal injection, Tea Product 1 0.6 mL of 10% per day intragastric gavage. The method, then: The establishment of Animal Model 1 is addressed as follows. […] SCXK (Hu) 2012-0002) were purchased from Shanghai Silaike Experiment Animal Co., Ltd and were acclimatized for one week. HepG2 cells (human liver cancer cells) mentioned in section C of Example 3 were cultivated in the corresponding complete medium (see Table 3) supplemented with 100 μg/mL penicillin and 100 μg/mL streptomycin in an incubator (37° C., 100% relative humidity, 5% CO2). When adherent cancer/tumor cells reached 97% confluence, the medium was removed. Cell detachment was conducted using trypsin, and the detached cells were transferred to a centrifuge tube. Centrifugation was conducted, and the resulting supernatant was removed. Staining was performed with a 0.4% trypan blue, and it was determined that the cell viability was higher than 97%. A cell suspension having a concentration of […] was prepared using PBS. 0.2 mL of the cell suspension was subcutaneously injected into each of the nude mice at a position posterior to the axilla. […] Tea Product 1 and Conventional Tea Product obtained in section A of Example 3, as well as 5-fluorouracil mentioned in section B of Example 3, were examined for their in vivo antitumor activity. […] In all the three experiments above, each of the nude mice was sacrificed 24 hours after the termination of the treatment. The tumor was collected and weighed. The antitumor effect of a respective test substance was evaluated by virtue of the percent tumor growth inhibition (%), which was calculated using the following Equation II: E=[(F−G)/(F)]×100% (I) • E=percent tumor growth inhibition (%) • F=tumor weight of control group • G=tumor weight of respective test substance group The experimental data are expressed as mean±SEM (standard error of the mean). The experimental data were subjected to one-way analysis of variance (ANOVA) using SPSS (Statistical Package for Social Sciences) software package version 11.5, such that the difference between the groups could be evaluated. The data regarding the tumor weights of the groups were subjected to t-test. […]

For series [2], the system named is human lung cancer cell line A549. The experiment in a line: In vitro antitumor/anticancer testing (CCK-8), A549. The series is classed as cell-based. Conditions: 48 h. Here is the method:
Each of Tea Product 1 and Conventional Tea Product obtained in section A of this example was used to prepare test tea samples according to the method described below. A proper amount of the respective tea product was added into sterile water to prepare a stock solution with a concentration of 100 mg/mL, followed by using a membrane filter with a pore size of 0.22 μm to conduct vacuum filtration and sterilization. The resulting stock solution was diluted with a respective complete medium shown in Table 3 below to form test tea samples with different concentrations. In other words, the thus obtained test tea samples to be used for treating a respective cancer/tumor cell line shown in Table 3 were prepared using the same complete medium as that for the respective cancer/tumor cell line. […] Specifically, each of the aforesaid commercially available agents was subjected to the method described below to prepare comparative test samples. A proper amount of a respective commercially available agent was dissolved in phosphate-buffered saline (PBS) to prepare a stock solution with a concentration of 5 mg/mL, followed by using a membrane filter with a pore size of 0.22 μm to conduct vacuum filtration and sterilization. The resulting stock solution was diluted with a respective complete medium shown in Table 3 below to form comparative test samples with different concentrations. To be specific, the comparative test samples prepared from the respective commercially available agent have the concentrations shown in Table 2 below. The thus obtained comparative test samples to be used for treating a respective cancer/tumor cell line shown in Table 3 were prepared using the same complete medium as that for the respective cancer/tumor cell line. […] The cultivation of each cancer/tumor cell line is described as follows. […] Afterwards, a cell suspension having a cell density of 1.0×10^4 cells/mL was prepared. […] As experimental groups, the tumor/cancer cells of each cell line were treated with the test tea samples prepared from one or more of the tea products and the comparative test samples prepared from one or more of the commercially available agents as obtained in section B of this example (for more detailed information about the tea product(s) and the commercially available product (s) used to treat each cell line, please see Table 4 below). To be specific, 6 to 10 test tea samples prepared from the same tea product and having different concentrations, as well as 6 to 10 comparative test samples prepared from the same commercially available agent and having different concentrations, were utilized to treat the tumor/cancer cells of each cell line. For each experimental group, 6 repetitions of tumor/cancer treatment were performed. For the control group, 100 μL of PBS was added to a well containing the medium and the cancer/tumor cells of the respective cell line. For the blank group, 100 μL of PBS was added to a well containing a complete medium the same as that used for cultivation of the cancer/tumor cells of the respective cell line. After the treatment described above, cultivation was conducted in an incubator (37° C., 100% relative humidity, 5% CO2) for 48 hours. Subsequently, the liquid containing the medium and the sample in the well was removed, and a respective complete medium (shown in Table 3 above) containing 10% CCK-8 (Cell Counting Kit-8)(Dojindo Molecular Technologies, Inc., Cat. No. CK04-13) was added. Cultivation was performed in an incubator (37° C.) for 2 to 4 hours, followed by gently shaking.

Take `O=c1[nH]cc(F)c(=O)[nH]1` [5-fluorouracil]: in series [1], the “Body weight After treatment” value is reported as 72.90 g, the “Percent tumor growth inhibition” value was found to be 80.84% and the Tumor weight is given as 0.08 g.

As for `O=C(O[C@@H]1Cc2c(O)cc(O)cc2O[C@@H]1c1cc(O)c(O)c(O)c1)c1cc(O)c(O)c(O)c1` [EGCG monomer, epigallocatechin gallate], the Percent growth inhibition amounted to 6.69% in series [2] (0.625 μg/mL); 5.92% in series [2] (1.25 μg/mL); 7.35% in series [2] (2.5 μg/mL); 6.76% in series [2] (5 μg/mL); 9.62% in series [2] (10 μg/mL); 23.21% in series [2] (20 μg/mL). The Percent growth inhibition turned out to be 35.39% in series [2] (40 μg/mL) and 60.18% in series [2] (80 μg/mL). Besides, the IC50 entry in series [2] (A549) is given as “IC50 (μg/mL) = 59.74”.

For the origin of these results see patent US20180071354A1, “SELECTIVE BREEDING METHOD OF ANTITUMOR/ANTICANCER CAMELLIA SINENSIS STRAIN, AND TEA PRODUCT OF SUCH STRAIN” (FUJIAN AGRICULTURE AND FORESTRY UNIVERSITY, priority 2015, published 2018).
